The source of these data is patent US9624241B2 (Incyte Corporation, priority 2013, dated 2017).

Assay [1] addresses BRD4-BD1 (Homo sapiens (Human), UniProt O60885). Description: BRD4 AlphaScreen Assay (Example A1), BRD4-BD1. It counts as binding. The settings on record: Assay A1, 3.8 nM BRD4-BD1, 50 nM H4Ac4 peptide; read-out: BRD4 BD-1 enzyme IC50. How it is done: (§1) BRD4-BD1 and BRD4-BD2 assays were conducted in white 384-well polystyrene plate in a final volume of 20 μL for BD1 and 40 μL for BD2. Inhibitors were first serially diluted in DMSO and added to the plate wells before the addition of other reaction components. […] After plate sealing, the plate was incubated in the dark at room temperature for 75 min. before reading on a PHERAstar FS plate reader (BMG Labtech). IC50 determination was performed by fitting the curve of percent control activity versus the log of the inhibitor concentration using the GraphPad Prism 5.0 software.
In general terms: Bead proximity is the source of the signal in Alpha formats.

In assay [2] the target is BRD4-BD2 (Homo sapiens (Human), UniProt O60885). Kind of assay: BRD4 AlphaScreen Assay (Example A1), BRD4-BD2. It is filed as binding. The note with it: Assay A1, 20 nM BRD4-BD2, 50 nM H4Ac4 peptide; read-out: BRD4 BD-2 enzyme IC50. The procedure:
as §1

Assay [3] deals with KMS.12.BM cells. Description: KMS.12.BM Cell Viability Assay (Example B1). It is filed as cell-based, human. The note with it: 3 days, Cell Titer-GLO, read-out: KMS cellular IC50. How it is done:
KMS.12.BM cell line (human myeloma) was purchased from JCRB (Osaka, Japan) and maintained in RPMI with 10% FBS culture medium. To measure the cytotoxic activity of the compounds through ATP quantitation, the KMS.12.BM cells are plated in the RPMI culture medium at 5000 cells/well/per 100 μL into a 96-well polystyrene clear black tissue culture plate (Greiner-bio-one through VWR, NJ), in the presence or absence of a concentration range of test compounds. After 3 days, […] Cell Titer-GLO Luminescent (Promega, Madison, Wis.) cell culture agent is added to each well for 10 min. at room temperature to stabilize the luminescent signal. This determines the number of viable cells in culture based on quantitation of the ATP present, which signals the presence of metabolically active cells.
For orientation: Cellular ATP, detected with luciferase, serves as a proxy for viable cell number.

Assay [4] concerns BET proteins. Description: BET protein inhibition, assay not specified. The settings on record: comparison of chiral HPLC peaks.

SMILES strings stand for the structures. Like-named read-outs stand apart in the source and are kept apart here.

As for `Cc1noc(C)c1-c1ccc2[nH]c(=O)n3c2c1OCC3c1ccccn1` (racemic) [Example 13, 7-(3,5-Dimethylisoxazol-4-yl)-4-pyridin-2-yl-4,5-dihydroimidazo[1,5,4-de][1,4]benzoxazin-2(1H)-one], the half-maximal inhibitory concentration (IC50) (usually the point on the concentration scale where inhibition reaches its midpoint) in assay [1] was below 100 nM; in assay [2], below 100 nM; in assay [3] (Homo sapiens, KMS-12-BM, 72 h), below 1000 nM.
Consider `Cc1noc(C)c1-c1ccc2[nH]c(=O)n3c2c1OCC3c1ccccc1` (single isomer, unassigned) [Example 1A, 7-(3,5-Dimethylisoxazol-4-yl)-4-phenyl-4,5-dihydroimidazo[1,5,4-de][1,4]benzoxazin-2(1H)-one], for which the “relative activity of separated enantiomers” value in assay [4] was “more active”.
In the case of `Cc1noc(C)c1-c1ccc2[nH]c(=O)n3c2c1OCC3c1ccccc1` (single isomer, unassigned) [Example 1B, 7-(3,5-Dimethylisoxazol-4-yl)-4-phenyl-4,5-dihydroimidazo[1,5,4-de][1,4]benzoxazin-2(1H)-one], the “relative activity of separated enantiomers” value in assay [4] is listed as “less active”.
Take `Cc1noc(C)c1-c1ccc2[nH]c(=O)n3c2c1OCC3c1ccccn1` (single isomer, unassigned) [Example 15, 7-(3,5-Dimethylisoxazol-4-yl)-4-pyridin-2-yl-4,5-dihydroimidazo[1,5,4-de][1,4]benzoxazin-2(1H)-one]: the IC50 was below 100 nM in assay [1]; below 100 nM in assay [2]; below 1000 nM in assay [3] (Homo sapiens, KMS-12-BM, 72 h).
`Cc1noc(C)c1-c1ccc2nc(N3CC[C@@H](O)C3)n3c2c1OCC3c1cccnc1` (single isomer, unassigned) [Example 159C]: the IC50 in assay [3] is 1000 to 10000 nM.
In the case of `CNc1nc2ccc(-c3c(C)noc3C)c3c2n1C(c1ccccc1)CO3` (stereo not shown) [Example 26, 7-(3,5-Dimethylisoxazol-4-yl)-N-methyl-4-phenyl-4,5-dihydroimidazo[1,5,4-de][1,4]benzoxazin-2-amine], the IC50 in assay [1] and in assay [2] was below 100 nM in each case.
As for `CCNc1nc2ccc(-c3c(C)noc3C)c3c2n1C(c1ccccc1)CO3` (stereo not shown) [Example 27, 7-(3,5-Dimethylisoxazol-4-yl)-N-ethyl-4-phenyl-4,5-dihydroimidazo[1,5,4-de][1,4]benzoxazin-2-amine], the concentration for half-maximal inhibition (IC50) in assay [1] and in assay [2] was below 100 nM throughout.
As to `Cc1noc(C)c1-c1ccc2nc(N(C)C)n3c2c1OCC3c1ccccc1` (stereo not shown) [Example 28, 7-(3,5-Dimethylisoxazol-4-yl)-N,N-dimethyl-4-phenyl-4,5-dihydroimidazo[1,5,4-de][1,4]benzoxazin-2-amine], the IC50 in assay [1] and in assay [2] was below 100 nM in each case.
Take `Cc1noc(C)c1-c1ccc2nc(NCCO)n3c2c1OCC3c1ccccc1` (stereo not shown) [Example 29, 2-{[7-(3,5-Dimethylisoxazol-4-yl)-4-phenyl-4,5-dihydroimidazo[1,5,4-de][1,4]benzoxazin-2-yl]amino}ethanol]: the half-inhibitory concentration (IC50) in assay [1] and in assay [2] was below 100 nM throughout.
Turning to `Cc1noc(C)c1-c1ccc2nc(NCC(C)O)n3c2c1OCC3c1ccccc1` (stereo not shown) [Example 32, 1-{[7-(3,5-Dimethylisoxazol-4-yl)-4-phenyl-4,5-dihydroimidazo[1,5,4-de][1,4]benzoxazin-2-yl]amino}propan-2-ol], the IC50 in assay [1] and in assay [2] was below 100 nM each time.
With `Cc1noc(C)c1-c1ccc2nc(NC(C)(C)CO)n3c2c1OCC3c1ccccc1` (stereo not shown) [Example 33, 2-{[7-(3,5-Dimethylisoxazol-4-yl)-4-phenyl-4,5-dihydroimidazo[1,5,4-de][1,4]benzoxazin-2-yl]amino}-2-methylpropan-1-ol], the half-inhibitory concentration (IC50) in assay [1] was 1000 to 10000 nM; in assay [2] it was 100 to 1000 nM.
The matching figures for `Cc1noc(C)c1-c1ccc2nc(N(C)CCO)n3c2c1OCC3c1ccccc1` (stereo not shown) [Example 34, 2-[[7-(3,5-Dimethylisoxazol-4-yl)-4-phenyl-4,5-dihydroimidazo[1,5,4-de][1,4]benzoxazin-2-yl](methyl)amino]ethanol]: below 100 nM and below 100 nM.
The matching figures for `Cn1nccc1-c1ccc2[nH]c(=O)n3c2c1OCC3c1ccccc1` (stereo not shown) [Example 35, 7-(1-Methyl-1H-pyrazol-5-yl)-4-phenyl-4,5-dihydroimidazo[1,5,4-de][1,4]benzoxazin-2(1H)-one]: 100 to 1000 nM and below 100 nM.
In the case of `Cn1nccc1-c1cc(Br)c2[nH]c(=O)n3c2c1OCC3c1ccccc1` (stereo not shown) [Example 36, 9-Bromo-7-(1-methyl-1H-pyrazol-5-yl)-4-phenyl-4,5-dihydroimidazo[1,5,4-de][1,4]benzoxazin-2(1H)-one], the IC50 in assay [1] is 100 to 1000 nM; in assay [2] it was below 100 nM.
The corresponding values for `Cc1cc(-c2ccnn2C)c2c3c1[nH]c(=O)n3C(c1ccccc1)CO2` (stereo not shown) [Example 37, 9-Methyl-7-(1-methyl-1H-pyrazol-5-yl)-4-phenyl-4,5-dihydroimidazo[1,5,4-de][1,4]benzoxazin-2(1H)-one] are 100 to 1000 nM and below 100 nM.
`Cn1ncc(Cl)c1-c1ccc2[nH]c(=O)n3c2c1OCC3c1ccccc1` (stereo not shown) [Example 38, 7-(4-Chloro-1-methyl-1H-pyrazol-5-yl)-4-phenyl-4,5-dihydroimidazo[1,5,4-de][1,4]benzoxazin-2(1H)-one]: the IC50 lay in the range of 1000 to 10000 nM in assay [1] and 100 to 1000 nM in assay [2].
The corresponding values for `Cc1noc(C)c1-c1ccc2ncn3c2c1OCC3c1ccccc1` (stereo not shown) [Example 39, 7-(3,5-Dimethylisoxazol-4-yl)-4-phenyl-4,5-dihydroimidazo[1,5,4-de][1,4]benzoxazine] are below 100 nM and below 100 nM.
The corresponding values for `Cc1noc(C)c1-c1ccc2[nH]c(=O)n3c2c1OCC3c1ccc(F)cc1` (stereo not shown) [Example 49, 7-(3,5-Dimethylisoxazol-4-yl)-4-(4-fluorophenyl)-4,5-dihydroimidazo[1,5,4-de][1,4]benzoxazin-2(1H)-one] are below 100 nM and below 100 nM.
As for `Cc1noc(C)c1-c1ccc2[nH]c(=O)n3c2c1OCC3c1ccccc1OCC(=O)NCCO` (stereo not shown) [Example 50, 2-{2-[7-(3,5-Dimethylisoxazol-4-yl)-2-oxo-1,2,4,5-tetrahydroimidazo[1,5,4-de][1,4]benzoxazin-4-yl]phenoxy}-N-(2-hydroxyethyl)acetamide], the IC50 in assay [1] and in assay [2] was below 100 nM throughout.
In the case of `Cc1noc(C)c1-c1ccc2[nH]c(=O)n3c2c1OCC3c1ccccc1OCC(=O)N(C)C` (stereo not shown) [Example 51, 2-{2-[7-(3,5-Dimethylisoxazol-4-yl)-2-oxo-1,2,4,5-tetrahydroimidazo[1,5,4-de][1,4]benzoxazin-4-yl]phenoxy}-N,N-dimethylacetamide], the half-inhibitory concentration (IC50) in assay [1] and in assay [2] was below 100 nM in each case.
In the case of `Cc1noc(C)c1-c1ccc2nc(N3CCCC3)n3c2c1OCC3c1ccccc1` (stereo not shown) [Example 54, 7-(3,5-Dimethylisoxazol-4-yl)-4-phenyl-2-pyrrolidin-1-yl-4,5-dihydroimidazo[1,5,4-de][1,4]benzoxazine], the IC50 in assay [1] and in assay [2] was below 100 nM in each case.
With `Cc1noc(C)c1-c1ccc2nc(N3CCC(O)CC3)n3c2c1OCC3c1ccccc1` (stereo not shown) [Example 57, 1-[7-(3,5-Dimethylisoxazol-4-yl)-4-phenyl-4,5-dihydroimidazo[1,5,4-de][1,4]benzoxazin-2-yl]piperidin-4-ol], the half-inhibitory concentration (IC50) in assay [1] and in assay [2] was below 100 nM each time.
For the compound `Cc1noc(C)c1-c1ccc2nc(N3CCCC(O)C3)n3c2c1OCC3c1ccccc1` (stereo not shown) [Example 58, 1-[7-(3,5-Dimethylisoxazol-4-yl)-4-phenyl-4,5-dihydroimidazo[1,5,4-de][1,4]benzoxazin-2-yl]piperidin-3-ol], the IC50 in assay [1] and in assay [2] was below 100 nM each time.
With `Cc1noc(C)c1-c1ccc2nc(N3CC(O)C3)n3c2c1OCC3c1ccccc1` (stereo not shown) [Example 59, 1-[7-(3,5-Dimethylisoxazol-4-yl)-4-phenyl-4,5-dihydroimidazo[1,5,4-de][1,4]benzoxazin-2-yl]azetidin-3-ol], the IC50 in assay [1] and in assay [2] was below 100 nM in each case.
On to `Cc1noc(C)c1-c1ccc2nc(N3CCN(C(=O)OC(C)(C)C)CC3)n3c2c1OCC3c1ccccc1` (stereo not shown) [Example 60], for which the IC50 in assay [1] and in assay [2] was below 100 nM in each case.
